One compound from PMC12281424, “A Rac-specific competitive inhibitor of guanine nucleotide binding reduces metastasis in triple-negative breast cancer” (Cell Reports Medicine, 2025) can be followed below.

Series [1] addresses SAPK2b(h) (Homo sapiens, UniProt Q15759). The experiment in a line: Kinase Profiler. The format is biochemical.
Description: (§4) The kinase profiler was performed by the company Eurofins (Discovery, Panlab and Cerep).
In series [2] the target is SAPK4(h) (Homo sapiens, UniProt O15264). In words: Kinase Profiler. The series is classed as biochemical.
Description: as §4
For series [3], the target named is T1, RHOG (Homo sapiens, UniProt P84095).
T1 construct: Full-length RAC2, RHOG, RHOA and CDC42 were purified as previously described; made in house
In words: GEF-stimulated nucleotide exchange. The series is classed as biochemical. On the set-up: dose or concentration left out as unconfirmed. The source says:
(§1) Figure 4 A41 selectively impairs RAC protein activation (A) Representative surface plasmon resonance (SPR) sensograms of binding of immobilized RHOA or CDC42 with indicated increasing concentrations of A41 (N > 3). (B) Effect of A41 on GEF-stimulated RAC2, RHOG, RHOA, and CDC42 nucleotide exchange. […] Kobs is expressed as mean ± SEM. ∗p < 0.001 vs. control. (C) Effect of A41 on RAC1 G30S activation. […] The GEF TRIO was used to induce nucleotide exchange (N = 3). Data are expressed as mean ± SEM. (D) Immunoblot analysis and associated quantification of RAC-GTP level and total RAC expression in NIH-3T3 fibroblasts expressing RAC wild-type (RAC1 WT) or RAC1 oncomutants (RAC1 P29S and RAC1b) in the absence (Ctrl) and presence of A41 (10 μM). RAC activation was measured as the ratio of RAC-GTP to total RAC and expressed relative to Ctrl condition. Data are presented as mean ± SEM. ∗∗∗p < 0.001 vs. controls.
(§2) Full-length RAC1 carrying a 6xHis tag in C-terminus was purified as previously described.[64] […] Specific exchange activity toward RHOA determined by fluorescence kinetics is 0.04 s^−1M^−1.
(§3) Nucleotide exchange kinetics were measured by recording the increase in fluorescence following the association of mant-GTP on GDP-bound RHO protein or the decay in fluorescence following the dissociation of mant-GDP pre-loaded onto the RHO protein (λEx = 360 nm, λEm = 440 nm) as previously described.[39] […]

The target of series [4] is T2, RAC2 (Homo sapiens, UniProt P15153).
T2 construct: Full-length RAC2, RHOG, RHOA and CDC42 were purified as previously described; made in house
In words: GEF-stimulated nucleotide exchange. The format is biochemical. On the set-up: dose or concentration left out as unconfirmed.
Description: as §1, §2, §3

Series [5] concerns the target Rsk2(h) (Homo sapiens, UniProt P51812). In words: Kinase Profiler. The format is biochemical.
Description: as §4
The target in series [6] is BMPR2(h) (Homo sapiens, UniProt Q13873). The experiment in a line: Kinase Profiler. The series is classed as biochemical.
Description: (§5) Blood cell counts, kinase profiler, safety screen, bacterial cytotoxicity, Ames, micronucleus assays were performed by the company Eurofins (France). The kinase profiler was performed by the company Eurofins (Discovery, Panlab and Cerep).
In series [7] the target is NEK3(h) (Homo sapiens, UniProt P51956). In words: Kinase Profiler. The series is classed as biochemical.
Description: as §4
For series [8], the target named is Met(h) (Homo sapiens, UniProt P08581). In words: Kinase Profiler. The series is classed as biochemical.
Description: as §4
The target of series [9] is Lyn(m) (Mus musculus, UniProt P25911). In words: Kinase Profiler. The series is classed as biochemical.
Description: as §4
For series [10], the target named is ChaK1(h) (Homo sapiens, UniProt Q96QT4). The experiment in a line: Kinase Profiler. The series is classed as biochemical.
Description: as §4
The target in series [11] is PKCβII(h) (Homo sapiens, UniProt P05771). In words: Kinase Profiler. The series is classed as biochemical.
Description: as §4
The target in series [12] is EphB4(h) (Homo sapiens, UniProt P54760). In words: Kinase Profiler. The series is classed as biochemical.
Description: as §5
Series [13] deals with CDK5/p35(h) (Homo sapiens, UniProt Q00535). In words: Kinase Profiler. The series is classed as biochemical.
Description: as §5
Series [14] has as its target FGFR2(h) (Homo sapiens, UniProt P21802). The experiment in a line: Kinase Profiler. The format is biochemical.
Description: as §4
Series [15] is described as follows: Ames fluctuation test (2nd group). The series is classed as cell-based. From the text:
Data S3. Ames-fluctuation assay-A41.
Test Concentration Count Positive Significance Fisher Exact Test
(# of wells) (- to +++) (p-value)
Ames fluctuation test (TA100 + S9

Series [16] relates to GABAA, Flunitrazepam, Central. In words: Safety screen. The format is binding, rat.
Description: Blood cell counts, kinase profiler, safety screen, bacterial cytotoxicity, Ames, micronucleus assays were performed by the company Eurofins (France).

SMILES strings stand for the structures.

SAPK4(h), sequence (O15264 whole entry): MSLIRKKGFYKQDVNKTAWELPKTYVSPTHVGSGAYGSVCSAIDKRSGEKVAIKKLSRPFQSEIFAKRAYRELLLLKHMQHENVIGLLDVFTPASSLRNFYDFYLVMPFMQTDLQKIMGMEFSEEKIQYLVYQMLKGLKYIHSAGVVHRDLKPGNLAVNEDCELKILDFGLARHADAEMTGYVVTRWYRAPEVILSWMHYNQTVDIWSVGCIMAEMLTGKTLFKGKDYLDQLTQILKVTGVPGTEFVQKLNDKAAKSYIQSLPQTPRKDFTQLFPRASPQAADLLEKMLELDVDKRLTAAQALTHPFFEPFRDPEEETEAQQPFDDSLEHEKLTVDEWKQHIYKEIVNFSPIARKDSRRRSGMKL
SAPK2b(h), sequence (Q15759 whole entry): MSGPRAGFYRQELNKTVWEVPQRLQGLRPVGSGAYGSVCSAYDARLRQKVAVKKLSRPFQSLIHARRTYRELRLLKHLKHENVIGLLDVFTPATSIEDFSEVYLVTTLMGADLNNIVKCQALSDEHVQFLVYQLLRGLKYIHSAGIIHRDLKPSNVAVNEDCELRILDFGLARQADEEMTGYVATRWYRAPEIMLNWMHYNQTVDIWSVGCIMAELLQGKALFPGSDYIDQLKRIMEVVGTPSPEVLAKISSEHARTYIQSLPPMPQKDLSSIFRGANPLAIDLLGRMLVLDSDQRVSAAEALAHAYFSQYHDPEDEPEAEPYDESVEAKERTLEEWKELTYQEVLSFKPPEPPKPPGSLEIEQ
BMPR2(h), sequence (Q13873 27-1038): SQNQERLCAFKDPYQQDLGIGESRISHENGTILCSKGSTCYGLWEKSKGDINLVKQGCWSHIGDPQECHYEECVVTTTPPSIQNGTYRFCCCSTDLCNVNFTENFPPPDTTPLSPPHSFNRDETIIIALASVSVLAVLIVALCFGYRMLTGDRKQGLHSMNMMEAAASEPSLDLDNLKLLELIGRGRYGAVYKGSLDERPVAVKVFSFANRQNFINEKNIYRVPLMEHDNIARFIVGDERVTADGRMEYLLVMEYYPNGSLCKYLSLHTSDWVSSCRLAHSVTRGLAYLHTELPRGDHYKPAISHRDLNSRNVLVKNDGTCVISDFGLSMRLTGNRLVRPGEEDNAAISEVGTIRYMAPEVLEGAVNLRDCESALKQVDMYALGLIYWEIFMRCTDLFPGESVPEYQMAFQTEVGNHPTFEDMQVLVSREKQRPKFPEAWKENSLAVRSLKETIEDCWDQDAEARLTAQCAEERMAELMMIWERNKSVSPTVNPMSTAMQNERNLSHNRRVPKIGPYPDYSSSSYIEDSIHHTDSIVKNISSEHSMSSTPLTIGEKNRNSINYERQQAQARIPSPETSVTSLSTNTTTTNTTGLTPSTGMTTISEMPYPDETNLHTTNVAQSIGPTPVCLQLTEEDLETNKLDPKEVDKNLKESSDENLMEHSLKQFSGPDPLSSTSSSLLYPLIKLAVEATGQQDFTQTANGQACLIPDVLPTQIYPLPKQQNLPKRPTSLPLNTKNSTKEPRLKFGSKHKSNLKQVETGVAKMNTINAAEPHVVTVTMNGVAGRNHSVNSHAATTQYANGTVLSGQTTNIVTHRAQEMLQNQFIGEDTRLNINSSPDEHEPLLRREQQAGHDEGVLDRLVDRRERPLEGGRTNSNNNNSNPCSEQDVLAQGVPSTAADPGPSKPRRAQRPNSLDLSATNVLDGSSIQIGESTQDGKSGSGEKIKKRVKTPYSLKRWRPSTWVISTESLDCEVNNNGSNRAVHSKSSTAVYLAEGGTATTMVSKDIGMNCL
Rsk2(h), sequence (P51812 whole entry): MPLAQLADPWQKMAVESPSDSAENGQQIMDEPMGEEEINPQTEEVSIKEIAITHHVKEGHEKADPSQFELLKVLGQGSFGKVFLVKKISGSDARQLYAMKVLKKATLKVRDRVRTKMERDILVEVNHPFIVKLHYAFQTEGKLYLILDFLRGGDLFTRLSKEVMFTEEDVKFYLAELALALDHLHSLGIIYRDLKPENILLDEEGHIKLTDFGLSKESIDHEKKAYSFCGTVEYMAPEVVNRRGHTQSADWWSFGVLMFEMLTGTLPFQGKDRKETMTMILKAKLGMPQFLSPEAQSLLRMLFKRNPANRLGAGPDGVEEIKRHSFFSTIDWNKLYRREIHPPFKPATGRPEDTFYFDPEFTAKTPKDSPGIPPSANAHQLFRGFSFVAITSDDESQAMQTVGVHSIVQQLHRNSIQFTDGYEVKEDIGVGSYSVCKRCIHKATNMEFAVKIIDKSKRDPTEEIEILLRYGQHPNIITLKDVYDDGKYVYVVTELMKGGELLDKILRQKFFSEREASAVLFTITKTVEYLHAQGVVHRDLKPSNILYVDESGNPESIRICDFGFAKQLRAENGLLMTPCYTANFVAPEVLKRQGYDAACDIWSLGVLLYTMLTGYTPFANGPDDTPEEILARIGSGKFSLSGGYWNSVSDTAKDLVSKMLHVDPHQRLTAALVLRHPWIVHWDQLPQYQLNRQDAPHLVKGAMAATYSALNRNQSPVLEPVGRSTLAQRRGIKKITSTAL
EphB4(h), sequence (P54760 16-987): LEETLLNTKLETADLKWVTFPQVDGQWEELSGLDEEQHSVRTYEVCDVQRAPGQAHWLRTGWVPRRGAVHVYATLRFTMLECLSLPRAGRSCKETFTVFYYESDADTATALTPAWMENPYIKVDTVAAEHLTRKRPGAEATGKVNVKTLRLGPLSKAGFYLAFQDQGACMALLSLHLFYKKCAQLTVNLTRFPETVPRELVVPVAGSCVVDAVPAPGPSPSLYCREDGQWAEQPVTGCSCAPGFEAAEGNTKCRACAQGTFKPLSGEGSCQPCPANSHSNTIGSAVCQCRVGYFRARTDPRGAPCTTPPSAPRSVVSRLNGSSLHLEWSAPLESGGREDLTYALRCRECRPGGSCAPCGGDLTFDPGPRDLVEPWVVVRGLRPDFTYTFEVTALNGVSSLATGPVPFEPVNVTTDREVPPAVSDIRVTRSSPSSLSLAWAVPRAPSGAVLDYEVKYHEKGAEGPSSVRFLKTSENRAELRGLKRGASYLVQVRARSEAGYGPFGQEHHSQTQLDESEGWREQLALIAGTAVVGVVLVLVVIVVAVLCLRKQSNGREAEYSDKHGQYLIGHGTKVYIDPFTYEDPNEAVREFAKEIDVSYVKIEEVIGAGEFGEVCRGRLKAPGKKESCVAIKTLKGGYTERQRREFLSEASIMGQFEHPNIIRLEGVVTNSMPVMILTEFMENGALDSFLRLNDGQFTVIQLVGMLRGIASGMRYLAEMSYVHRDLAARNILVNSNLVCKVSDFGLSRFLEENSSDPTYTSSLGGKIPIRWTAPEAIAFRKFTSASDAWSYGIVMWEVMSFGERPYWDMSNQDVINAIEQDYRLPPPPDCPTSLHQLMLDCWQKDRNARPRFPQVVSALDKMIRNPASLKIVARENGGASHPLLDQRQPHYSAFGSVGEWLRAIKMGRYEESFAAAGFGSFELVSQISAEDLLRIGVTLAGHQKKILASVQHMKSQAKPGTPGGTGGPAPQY
FGFR2(h), sequence (P21802 22-821): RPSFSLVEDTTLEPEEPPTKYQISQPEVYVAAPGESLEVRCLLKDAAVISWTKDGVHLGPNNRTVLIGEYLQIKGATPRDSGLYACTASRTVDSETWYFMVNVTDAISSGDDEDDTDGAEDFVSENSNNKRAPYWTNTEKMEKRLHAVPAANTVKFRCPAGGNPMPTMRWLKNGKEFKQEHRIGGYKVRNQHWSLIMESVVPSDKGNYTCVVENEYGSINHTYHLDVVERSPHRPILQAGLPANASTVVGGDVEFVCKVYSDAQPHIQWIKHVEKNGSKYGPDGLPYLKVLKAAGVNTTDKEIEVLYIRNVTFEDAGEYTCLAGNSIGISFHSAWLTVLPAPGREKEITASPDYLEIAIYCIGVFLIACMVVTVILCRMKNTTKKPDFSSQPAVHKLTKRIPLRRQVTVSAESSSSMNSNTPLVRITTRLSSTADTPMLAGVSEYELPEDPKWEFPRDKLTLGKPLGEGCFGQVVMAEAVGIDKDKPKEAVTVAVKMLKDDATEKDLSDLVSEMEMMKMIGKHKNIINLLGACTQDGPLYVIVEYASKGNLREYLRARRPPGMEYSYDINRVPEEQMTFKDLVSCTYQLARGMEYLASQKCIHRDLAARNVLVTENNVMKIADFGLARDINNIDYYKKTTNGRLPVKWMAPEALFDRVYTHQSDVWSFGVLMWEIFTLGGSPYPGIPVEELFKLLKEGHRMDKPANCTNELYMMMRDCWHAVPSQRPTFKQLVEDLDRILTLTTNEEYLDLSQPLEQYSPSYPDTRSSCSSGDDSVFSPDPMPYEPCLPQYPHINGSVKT
Lyn(m), sequence (P25911 2-512 limits assumed): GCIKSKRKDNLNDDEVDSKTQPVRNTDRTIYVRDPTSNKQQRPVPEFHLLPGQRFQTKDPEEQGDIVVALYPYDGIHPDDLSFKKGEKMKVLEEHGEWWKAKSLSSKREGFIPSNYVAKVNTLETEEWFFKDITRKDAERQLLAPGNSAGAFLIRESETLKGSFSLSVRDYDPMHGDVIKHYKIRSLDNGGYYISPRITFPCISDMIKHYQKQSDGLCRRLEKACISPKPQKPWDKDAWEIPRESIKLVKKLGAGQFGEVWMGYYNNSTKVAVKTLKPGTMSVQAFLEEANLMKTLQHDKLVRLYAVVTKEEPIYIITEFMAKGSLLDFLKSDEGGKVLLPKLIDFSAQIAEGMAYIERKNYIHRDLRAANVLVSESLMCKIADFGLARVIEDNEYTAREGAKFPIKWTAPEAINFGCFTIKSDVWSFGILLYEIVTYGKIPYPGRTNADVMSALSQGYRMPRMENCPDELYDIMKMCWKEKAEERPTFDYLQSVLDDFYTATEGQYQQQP
T1 sequence (P84095 whole entry): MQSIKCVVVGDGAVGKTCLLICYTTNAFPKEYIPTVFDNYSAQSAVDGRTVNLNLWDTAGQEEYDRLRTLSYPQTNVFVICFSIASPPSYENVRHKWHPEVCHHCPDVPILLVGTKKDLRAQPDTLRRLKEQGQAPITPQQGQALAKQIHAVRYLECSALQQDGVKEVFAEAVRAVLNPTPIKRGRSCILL

As for `COc1ccc(OC)c(NS(=O)(=O)c2ccc(NC(=O)CCSc3ccc(C)cc3)cc2)c1` [Compound A41], the “Activity(%)” value in series [1] was found to be 107%; in series [2], 104%; in series [5] it was 86%; in series [6] it was 100%; in [7], 107%; in [8] it was 88%. Further, the “Activity(%)” value in series [9] is on record as 110%; in series [10], 104%; in [11], 97%; in [12], 112%; in series [13] it was 99%; in [14], 89%. Besides, the “TRIO-induced RHOG activation” value in series [3] was “no effect”. Also, the “TRIO-induced activation of RAC2” value in series [4] is “reduced”. For the same compound, the “Count Positive (# of wells)” value came to 0 in series [15] (1.0E-04 M), 1 in series [15] (1.0E-05 M), 0 in [15] (5.0E-05 M) and 3 in [15] (5.0E-06 M). Moreover, in [16], the “% inh.” value is 15%.
